{"source": "patent US12036189B2", "about": "“Method of treating major depressive disorder” (priority 2018, dated 2024)", "key": {"[1]": {"tested_on": "animal models of depression", "conditions": "cited from earlier work"}, "[2]": {"tested_on": "human peripheral blood lymphocytes (HPBL)", "procedure": "The clastogenic potential of esketamine was evaluated in the in vitro mammalian chromosome aberration test using human peripheral blood lymphocytes (HPBL) in both the absence and presence of an induced metabolic activation system (the 9000 g supernatant [S9] microsomal fraction of liver homogenate from rats exposed to Aroclor-1254).\nThe study was conducted in 2 phases, with a preliminary toxicity test used to determine the appropriate concentrations for the definitive chromosomal aberration assay. Water was used as a negative (vehicle) control. Toxicity (defined as ≥45% reduction in MI relative to the vehicle control) was evaluated at 9 concentrations, ranging from 0.0238 to 238 μg/ml, after exposure of HPBL to esketamine for 20 hours in the absence of S9 activation, or for 4 hours, either in the presence or absence of S9 activation, followed by a 16-hour recovery period.\nThe definitive chromosome aberration assay evaluated HPBL cells after exposure to esketamine for 20 hours in the absence of S9 activation, or for 4 hours, either in the presence of absence of S9 activation, followed by a 16-hour recovery. Positive controls for chromosomal aberrations in non-activated and S9-activated evaluations, respectively, consisted of mitomycin C (MMC, 0.6 and 0.3 μg/mL for the 4- and 20-hour exposures, respectively) and cyclophosphamide (CP, 2.5, 5, and 7.5 μg/mL). […] Initially, the doses selected for evaluation of chromosomal aberrations were 60, 120, and 238 μg/mL for the non-activated 4- and 20-hour treatment conditions; and 30, 60, and 200 μg/mL for the S9-activated 4-hour treatment condition."}, "[3]": {"tested_on": "human peripheral blood lymphocytes (HPBL)", "remark": "listed apart in the source", "method": "The study was conducted in 2 phases, with a preliminary toxicity test used to determine the appropriate concentrations for the definitive chromosomal aberration assay. Water was used as a negative (vehicle) control. In both phases, the cells were treated for 3 and 21 hours in the absence of S9 mix and for 3 hours in the presence of S9 mix. The mitotic index was assessed for all cultures to determine cytotoxicity. Ten concentrations, ranging from 2.62 to 260.16 μg/mL, were evaluated in the preliminary toxicity test. […] S-Norketamine concentrations of 93.66, 156.10 or 260.16 μg/mL were selected for metaphase analysis."}, "[4]": {"test": "Single dose, randomized, open-label crossover study, pharmacokinetics", "conditions": "esketamine hydrochloride, 15 subjects", "excerpt": "A randomized, open-label 4-way crossover study in 16 healthy male and female subjects was held wherein said subjects were placed in a randomly assigned order and administered esketamine. Each subject was assigned to 1 of 4 treatment sequences according to a randomization code such that 4 subjects were assigned to each treatment sequence. There was a wash-out period of at least 7 days between dosing periods with dosing consisting of either oral or intravenous esketamine hydrochloride. The study consisted of an eligibility screening period of 28 days, 4 study periods involving administration of a single dose of esketamine hydrochloride followed by safety assessments with blood sampling for PK purposes up to 72 hours after study drug administration, discharge at 72 hours after study drug administration and a follow-up visit 7-14 days after the last PK blood sample was taken on Day 4."}, "[5]": {"test": "Repeated dose 28 day study, toxicokinetics", "conditions": "male rats, Day 28", "procedure": "The objective of the study was to assess the potential toxicity, neurobehavioral effects, and toxicokinetics (TK) of esketamine when administered orally, via gavage, to Sprague Dawley rats for 28 days and to evaluate recovery during a 14-day drug-free period. Fifty male and 50 female rats were randomized into 4 groups (15/sex/Groups 1 and 4; 10/sex/Groups 2 and 3). Esketamine was administered via oral gavage once daily for 28 consecutive days to males at 0 (vehicle control), 6, 10 or 30 mg/kg/day and females at 0 (vehicle control), 2, 10 or 20 mg/kg/day in a dose volume of 10 mL/kg. Animals were observed until euthanized and necropsied on Day 29 (10/sex/group) or 43 (5/sex from Groups 1 and 4). Toxicity was evaluated based on mortality, clinical observations, body weights, food consumption, ophthalmology, motor activity, functional observational battery, clinical pathology (clinical chemistry, hematology, coagulation and urinalysis), organ weights, anatomic (macroscopic or microscopic) pathology. Toxicokinetic animals (3/sex/Group 1; 6/sex/Groups 2, 3, and 4) were similarly dosed and bled on Day 1 and during Week 4 for toxicokinetic analysis."}, "liver of Crl:CD(SD) rats": {"tested_on": "liver of Crl:CD(SD) rats", "test": "In vivo single cell gel electrophoresis (comet) assay, DNA strand breaks in the liver"}}}
{"smiles": "CN[C@@]1(c2ccccc2Cl)CCCCC1=O", "note": "[(R)-ketamine, (2R)-2-(2-Chlorophenyl)-2-(methylamino) cyclohexanone]", "values": [{"measurement": "psychotomimetic side effects and abuse liability", "setting": "[1]", "value": "without psychotomimetic side effects and abuse liability"}]}
{"smiles": "O=P1(N(CCCl)CCCl)NCCCO1", "note": "(stereo not shown) [CP, cyclophosphamide]", "values": [{"measurement": "structural aberrations, % of the cells", "setting": "[2]; S9-activated system, positive control 2.5, 5 and 7.5 μg/mL", "value": 10.7, "unit": "%"}]}
{"smiles": "N[C@]1(c2ccccc2Cl)CCCCC1=O", "note": "[S-norketamine]", "values": [{"measurement": "Toxicity (mitotic index)", "setting": "[3]", "value": "not observed at any dose"}, {"measurement": "induction of structural and numerical chromosomal aberrations", "setting": "[3]", "value": "negative"}]}
{"smiles": "CN[C@]1(c2ccccc2Cl)CCCCC1=O", "note": "[esketamine, (2S)-2-(2-Chlorophenyl)-2-(methylamino) cyclohexanone]", "values": [{"measurement": "Toxicity (≥45% reduction in MI relative to the vehicle control)", "setting": "[2]", "value": "not observed at any dose"}, {"measurement": "doses at which cytotoxicity (≥45% reduction in mitotic index) was observed", "setting": "[2]; human", "value": "≥ 200", "unit": "µg/mL"}, {"measurement": "AUC0-inf, Geometric mean", "setting": "[4]; 0.3 mg/kg iv", "value": 257.14, "unit": "ng·h/mL"}, {"measurement": "AUC0-t, Geometric mean", "setting": "[4]; 0.3 mg/kg iv", "value": 249.15, "unit": "ng·h/mL"}, {"measurement": "Cmax, Geometric mean", "setting": "[4]; 0.3 mg/kg iv", "value": 94.50, "unit": "ng/mL"}, {"measurement": "t1/2, Geometric mean", "setting": "[4]; 0.3 mg/kg iv", "value": 10.16, "unit": "h"}, {"measurement": "tmax, Median", "setting": "[4]; 0.3 mg/kg iv", "value": 1.00, "unit": "h"}, {"measurement": "AUC0-inf, Geometric mean", "setting": "[4]; 20 mg oral solution", "value": 25.82, "unit": "ng·h/mL"}, {"measurement": "AUC0-t, Geometric mean", "setting": "[4]; 20 mg oral solution", "value": 23.44, "unit": "ng·h/mL"}, {"measurement": "Cmax, Geometric mean", "setting": "[4]; 20 mg oral solution", "value": 16.48, "unit": "ng/mL"}, {"measurement": "t1/2, Geometric mean", "setting": "[4]; 20 mg oral solution", "value": 2.91, "unit": "h"}, {"measurement": "tmax, Median", "setting": "[4]; 20 mg oral solution", "value": 0.50, "unit": "h"}, {"measurement": "AUC0-inf, Geometric mean", "setting": "[4]; 20 mg oral tablet", "value": 22.46, "unit": "ng·h/mL"}, {"measurement": "AUC0-t, Geometric mean", "setting": "[4]; 20 mg oral tablet", "value": 20.05, "unit": "ng·h/mL"}, {"measurement": "tmax, Median", "setting": "[4]; 20 mg oral tablet", "value": 0.75, "unit": "h"}, {"measurement": "t1/2, Geometric mean", "setting": "[4]; 20 mg oral", "value": 2.84, "unit": "h"}, {"measurement": "AUC0-inf, Geometric mean", "setting": "[4]; 100 mg oral tablet", "value": 180.84, "unit": "ng·h/mL"}, {"measurement": "AUC0-t, Geometric mean", "setting": "[4]; 100 mg oral tablet", "value": 172.71, "unit": "ng·h/mL"}, {"measurement": "Cmax, Geometric mean", "setting": "[4]; 100 mg oral tablet", "value": 65.34, "unit": "ng/mL"}, {"measurement": "tmax, Median", "setting": "[4]; 100 mg oral tablet", "value": 0.75, "unit": "h"}, {"measurement": "t1/2, Geometric mean", "setting": "[4]; 100 mg oral", "value": 7.66, "unit": "h"}, {"measurement": "t1/2", "setting": "[5]; 10 mg/kg oral gavage", "value": 0.6, "unit": "h"}, {"measurement": "AUC0-t", "setting": "[5]; 30 mg/kg oral gavage", "value": 575, "unit": "ng·h/mL"}, {"measurement": "median % TI in the liver vs vehicle control", "setting": "liver of Crl:CD(SD) rats; female rats, 25 and 50 mg/kg/day oral gavage, three doses, p<0.001", "value": "Statistically significant increases"}, {"measurement": "DNA strand breaks in the liver (study conclusion)", "setting": "liver of Crl:CD(SD) rats; male and female rats, oral gavage", "value": "evidence of causing an increase in DNA strand breaks"}, {"measurement": "median % tail intensity (TI) in the liver vs vehicle control", "setting": "liver of Crl:CD(SD) rats; male rats, 75 mg/kg/day oral gavage, three doses, p<0.001", "value": "Statistically significant increases"}, {"measurement": "macroscopic examination after 3 doses", "setting": "liver of Crl:CD(SD) rats; rat, in vivo", "value": "no test item related lesions"}]}
